Assay results: ChEMBL document CHEMBL6078687 (J Med Chem, 2024)

Key:
[1] = system: Influenza A virus; experiment: Antiviral activity against Influenza A virus A/WSN/67/05 H3N2 infected in MDCK cells assessed as inhibition of plaque formation measured after 2 days; conditions: A/WSN/67/05 H3N2, MDCK, 48 h
[2] = Cytotoxicity against CEF cells incubated for 48 hrs by CCK8 assay; format: toxicity, cell-based, Gallus gallus; conditions: chicken
[3] = Inhibition of neuraminidase in Influenza A virus A/Babol/36/2005 H3N2 using MUNANA as substrate incubated for 40 mins by […] based assay
[4] = system: Influenza A virus; experiment: microbe, parasite or virus in culture; conditions: A/PR/8/34 H1N1, MDCK, 48 h
[5] = Inhibition of neuraminidase in Influenza A virus A/Goose/Guangdong/SH7/2013 H5N1 using MUNANA as substrate incubated for 40 mins by […] based assay
[6] = Cytotoxicity against MDCK cells incubated for 48 hrs by MTT assay; format: toxicity, cell-based, Canis lupus familiaris; conditions: dog
[7] = system: Influenza A virus; experiment: microbe, parasite or virus in culture; conditions: A/Goose/Jiangsu/1306/2014 H5N8, CEF, 48 h
[8] = system: Influenza A virus; experiment: microbe, parasite or virus in culture; conditions: A/Goose/Guangdong/SH7/2013 H5N1, CEF, 48 h
[9] = in vitro; conditions: human, liver microsomes
[10] = in vitro; conditions: human, liver microsomes; remark: listed apart in the source

SMILES | IC50 [3] | IC50 [5] | also measured
CCC(CC)O[C@@H]1C=C(C(=O)O)C[C@H](NCc2ccc(OCc3ccc(B(O)O)cc3)cc2F)[C@H]1NC(C)=O | 0.4 µM | 0.087 µM | EC50 [1]: 18.5 µM; CC50 at 48 h [2]: > 500 µM; EC50 [4]: 0.029 µM; EC50 at 48 h [6]: > 250 µM; EC50 [7]: 3.97 µM; EC50 [8]: 1.59 µM
CCC(CC)O[C@@H]1C=C(C(=O)O)C[C@H](NCc2cccc(OCc3ccccc3B(O)O)c2)[C@H]1NC(C)=O | 7.88 µM | 7.02 µM | 
CCC(CC)O[C@@H]1C=C(C(=O)O)C[C@H](NCc2ccc(OCc3ccc(B(O)O)cc3)cc2OC)[C@H]1NC(C)=O | 0.51 µM | 1.75 µM | 
CCC(CC)O[C@@H]1C=C(C(=O)O)C[C@H](NCc2cccc(C(=O)Nc3ccc(B(O)O)cc3)c2)[C@H]1NC(C)=O | 6.66 µM | 1.05 µM | 
CCC(CC)O[C@@H]1C=C(C(=O)O)C[C@H](NCc2ccc(OCc3ccc(B(O)O)cc3)c(Cl)c2)[C@H]1NC(C)=O | 7.17 µM | 3.95 µM | 
CCC(CC)O[C@@H]1C=C(C(=O)O)C[C@H](NCc2ccc(OCc3cccc(B(O)O)c3)cc2Br)[C@H]1NC(C)=O | 0.47 µM | 0.081 µM | 
CCC(CC)O[C@@H]1C=C(C(=O)O)C[C@H](NCc2ccc(OCc3ccc(B(O)O)cc3)c(OC)c2)[C@H]1NC(C)=O | 28.6 µM | 51.8 µM | 
CCC(CC)O[C@@H]1C=C(C(=O)O)C[C@H](NCc2ccc(-c3cccs3)cc2OC)[C@H]1NC(C)=O | 2.1 µM | 1.65 µM | 
CCC(CC)O[C@@H]1C=C(C(=O)O)C[C@H](NCc2ccc(OCc3ccc(B(O)O)cc3)cc2Br)[C@H]1NC(C)=O | 0.34 µM | 0.071 µM | 
CCC(CC)O[C@@H]1C=C(C(=O)O)C[C@H](NCc2ccc(OCc3cccc(B(O)O)c3)c(Br)c2)[C@H]1NC(C)=O | 14.1 µM | 6.93 µM | 
O=C(O)Cc1ccccc1Nc1c(Cl)cccc1Cl [DICLOFENAC] |  |  | microsomal CLint at 2 h [9]: 222 µL/min/mg; CLint scaled at 2 h [10]: 200 mL/min/kg
CCC(CC)O[C@@H]1C=C(C(=O)O)C[C@H](NCc2ccc(OCc3ccc(B(O)O)cc3)c(Br)c2)[C@H]1NC(C)=O | 17.1 µM | 933 µM | 
CCC(CC)O[C@@H]1C=C(C(=O)O)C[C@H](NCc2ccc(OCc3ccc(B(O)O)cc3)cc2C)[C@H]1NC(C)=O | 0.11 µM | 0.074 µM | EC50 [1]: 10.6 µM; CC50 at 48 h [2]: > 200 µM; EC50 [4]: 0.011 µM; EC50 at 48 h [6]: > 250 µM; EC50 [7]: 3.55 µM; EC50 [8]: 6.39 µM
CCC(CC)O[C@@H]1C=C(C(=O)O)C[C@H](NCc2ccc(OCc3cccc(B(O)O)c3)c(OC)c2)[C@H]1NC(C)=O | 23.7 µM | 43.5 µM | 
CCC(CC)O[C@@H]1C=C(C(=O)O)C[C@H](NCc2ccc(OCc3ccc(B(O)O)cc3)c(C)c2)[C@H]1NC(C)=O | 16.7 µM | 8.06 µM | 
CCC(CC)O[C@@H]1C=C(C(=O)O)C[C@H](NCc2cc(C)c(OCc3cccc(B(O)O)c3)c(C)c2)[C@H]1NC(C)=O | 8.79 µM | 32.3 µM | 
CCC(CC)O[C@@H]1C=C(C(=O)O)C[C@H](NCc2ccc(OCc3cccc(B(O)O)c3)c(F)c2)[C@H]1NC(C)=O | 1.83 µM | 0.073 µM | 
CCC(CC)O[C@@H]1C=C(C(=O)O)C[C@H](NCc2ccccc2OCc2cccc(B(O)O)c2)[C@H]1NC(C)=O | 5.08 µM | 1.48 µM | 
CCC(CC)O[C@@H]1C=C(C(=O)O)C[C@H](NCc2c(C)cc(OCc3ccc(B(O)O)cc3)cc2C)[C@H]1NC(C)=O | 0.74 µM | 0.27 µM | 

SMILES | IC50 [3] | IC50 [5] | also measured
CCC(CC)O[C@@H]1C=C(C(=O)O)C[C@H](NCc2ccc(Oc3cccc(B(O)O)c3)cc2)[C@H]1NC(C)=O | 0.76 µM | 0.14 µM | 
CCC(CC)O[C@@H]1C=C(C(=O)O)C[C@H](NCc2ccc(OCc3cccc(B(O)O)c3)c(C)c2)[C@H]1NC(C)=O | 11.5 µM | 8.09 µM | 
CCC(CC)O[C@@H]1C=C(C(=O)O)C[C@H](NCc2ccc(Oc3ccc(B(O)O)cc3)cc2)[C@H]1NC(C)=O | 1.45 µM | 0.036 µM | 
CCC(CC)O[C@@H]1C=C(C(=O)O)C[C@H](NCc2cccc(C(=O)Nc3cccc(B(O)O)c3)c2)[C@H]1NC(C)=O | 0.23 µM | 0.41 µM | 
CCC(CC)O[C@@H]1C=C(C(=O)O)C[C@H](NCc2ccccc2OCc2ccc(B(O)O)cc2)[C@H]1NC(C)=O | 8.48 µM | 1.29 µM | 
CCC(CC)O[C@@H]1C=C(C(=O)O)C[C@H](NCc2ccc(-c3ccsc3)cc2OC)[C@H]1NC(C)=O | 8.46 µM | 1.5 µM | 
CCC(CC)O[C@@H]1C=C(C(=O)O)C[C@H](NCc2ccc(OCc3cccc(B(O)O)c3)c(Cl)c2)[C@H]1NC(C)=O | 6.66 µM | 2.78 µM | 
CCC(CC)O[C@@H]1C=C(C(=O)O)C[C@H](NCc2ccc(OCc3cccc(B(O)O)c3)c(B(O)O)c2)[C@H]1NC(C)=O | 1.78 µM | 0.075 µM | 
CCC(CC)O[C@@H]1C=C(C(=O)O)C[C@H](NCc2ccc(C(=O)Nc3cccc(B(O)O)c3)cc2)[C@H]1NC(C)=O | 17.1 µM | 1.17 µM | 
CCC(CC)O[C@@H]1C=C(C(=O)O)C[C@H](NCc2cc(C)c(OCc3ccc(B(O)O)cc3)c(C)c2)[C@H]1NC(C)=O | 41.8 µM | 19 µM | 
CCC(CC)O[C@@H]1C=C(C(=O)O)C[C@H](NCc2c(C)cc(OCc3cccc(B(O)O)c3)cc2C)[C@H]1NC(C)=O | 0.65 µM | 0.024 µM | EC50 [1]: > 100 µM; CC50 at 48 h [2]: > 200 µM; EC50 [4]: 0.014 µM; EC50 at 48 h [6]: > 250 µM; EC50 [7]: 9.12 µM; EC50 [8]: 2.54 µM
CCC(CC)O[C@@H]1C=C(C(=O)O)C[C@H](NCc2ccc(OCc3ccc(B(O)O)cc3)cc2Cl)[C@H]1NC(C)=O | 0.12 µM | 0.022 µM | EC50 [1]: 4.23 µM; CC50 at 48 h [2]: > 200 µM; EC50 [4]: 0.03 µM; EC50 at 48 h [6]: > 250 µM; EC50 [7]: > 40 µM; EC50 [8]: 3.57 µM
CCC(CC)O[C@@H]1C=C(C(=O)O)C[C@H](NCc2ccc(OCc3ccc(B(O)O)cc3)c(F)c2)[C@H]1NC(C)=O | 0.65 µM | 0.1 µM | 
CCC(CC)O[C@@H]1C=C(C(=O)O)C[C@H](NCc2ccc(OCc3cccc(B(O)O)c3)cc2F)[C@H]1NC(C)=O | 1.43 µM | 0.038 µM | EC50 [1]: > 100 µM; CC50 at 48 h [2]: 170 µM; EC50 [4]: 0.026 µM; EC50 at 48 h [6]: > 250 µM; EC50 [7]: 6.88 µM; EC50 [8]: 6.27 µM
CC(=O)N[C@H]1[C@H]([C@H](O)[C@H](O)CO)OC(C(=O)O)=C[C@@H]1NC(=N)N [ZANAMIVIR] | 0.038 µM |  | 
CCC(CC)O[C@@H]1C=C(C(=O)O)C[C@H](NCc2cccc(OCc3cccc(B(O)O)c3)c2)[C@H]1NC(C)=O | 4.37 µM | 4.91 µM | 
CCC(CC)O[C@@H]1C=C(C(=O)O)C[C@H](NCc2ccc(OCc3cccc(B(O)O)c3)cc2OC)[C@H]1NC(C)=O | 0.95 µM | 0.79 µM | 
CCC(CC)O[C@@H]1C=C(C(=O)O)C[C@H](NCc2ccc(C(=O)Nc3ccc(B(O)O)cc3)cc2)[C@H]1NC(C)=O | 1.64 µM | 0.97 µM | 
CCC(CC)O[C@@H]1C=C(C(=O)O)C[C@H](NCc2cccc(OCc3ccc(B(O)O)cc3)c2)[C@H]1NC(C)=O | 3.31 µM | 1.16 µM | 
